Experimental data published in patent US7147837B2, “Bioactivated diagnostic imaging constrast agents” (Epix Pharmaceuticals, Inc., priority 1996, dated 2006).
Like-named read-outs stand apart in the source and are kept apart here.

Columns and labels:
[1] = target: T1, human serum albumin (HSA) (Homo sapiens, UniProt P02768); test: Longitudinal relaxivity (R1) in PBS containing 4.5% HSA; type: physicochemical; conditions: for Relaxivity in 4.5% HSA: longitudinal relaxivity R1, 20 MHz, 37° C., PBS pH 7.4 with 4.5% HSA, unit from R1 definition, not in table
T1 sequence (P02768 25-609): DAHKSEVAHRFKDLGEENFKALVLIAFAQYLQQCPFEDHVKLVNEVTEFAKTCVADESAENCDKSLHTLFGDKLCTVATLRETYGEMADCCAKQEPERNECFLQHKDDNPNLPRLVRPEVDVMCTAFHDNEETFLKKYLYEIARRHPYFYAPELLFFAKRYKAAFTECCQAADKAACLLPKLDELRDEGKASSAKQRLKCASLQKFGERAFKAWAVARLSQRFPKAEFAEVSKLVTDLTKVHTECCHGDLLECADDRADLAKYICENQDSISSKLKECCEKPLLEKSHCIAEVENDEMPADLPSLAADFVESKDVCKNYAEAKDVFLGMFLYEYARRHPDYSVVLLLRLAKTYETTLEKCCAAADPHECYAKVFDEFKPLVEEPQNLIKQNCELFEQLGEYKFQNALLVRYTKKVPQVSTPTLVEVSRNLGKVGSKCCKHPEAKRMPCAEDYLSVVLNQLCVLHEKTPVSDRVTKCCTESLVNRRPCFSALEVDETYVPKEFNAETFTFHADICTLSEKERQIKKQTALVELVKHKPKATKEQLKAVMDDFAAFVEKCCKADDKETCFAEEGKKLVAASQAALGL
Text: The magnetic resonance phenomena is complex, and different paramagnetic materials alter the MRI signal to various degrees. See R. B. Lauffer, Chemical Reviews (1987), 87, pp. 901–927. A quantitative measurement of the ability of a contrast agent to relax water protons, and consequently affect the MRI image, is provided by its relaxivity. Relaxivity is the dependence of water proton signal intensity upon the concentration of paramagnetic metal ion in solution. Relaxivity is defined as the induced T1 or T2 relaxation per unit time (R1 or R2 in units of mM^−1 sec^−1) observed for a contrast agent, where the concentration of the agent is expressed in a millimolar (mM).
The degree to which an agent has been tuned for maximum relaxivity can be assessed by measuring the relaxivity-bound (R1-bound) in the presence of HSA. This requires measuring the relaxivity of the free chelate (R1-free) as well as the relaxivity (R1-observed) and percent binding of the agent in 4.5% HSA. The R1-observed is a mole fraction weighted average of R1-free and R1-bound: R1-observed=(fraction-free*R1-free)+(fraction-bound*R1-bound) Thus:
(§1) In Table V, the longitudinal relaxivities (R1) were obtained at 20 MHz and 37° C. by determining the concentration dependent relaxation rate (1/T1) of water protons in phosphate buffered saline (PBS, 150 mM NaCl, 10 mM phosphate, pH=7.4) or in PBS solutions containing 4.5% human serum albumin (HSA). The percent bound to HSA was determined by ultrafiltration of a 0.1 mM chelate, 4.5% HSA solution.

[2] = target: T1, human serum albumin (HSA); test: Percent bound to HSA by ultrafiltration; type: binding; conditions: for Percent Binding in 4.5% HSA: ultrafiltration, 0.1 mM chelate
Protocol: Protein binding of contrast agents can be assessed in vitro by equilibrium dialysis or ultrafiltration using a physiologically relevant protein concentration in buffer. See, G. N. Rolinson and R. Sutherland, British J. Pharmac. Chemother. (1965), 25, p. 638 (ultrafiltration); D. Glick, Methods Biochem. Anal. (1956), 3 p. 265 (equilibrium dialysis). The protein binding measurements set forth in this application are determined by ultrafiltration using 4.5% (w/w) human serum albumin in phosphate buffered saline (0.15 NaCl, 10 mM phosphate, pH 7.4). Preferably at least 10%, and more preferably at least 50%, and even more preferably at least 80%, and most preferably at least 95%, of an activated protein-binding contrast agent will be bound to the protein under physiologically relevant conditions. In this application, the measurement of percent binding of the contrast agent to HSA has an error of approximately +/−5%. Protein binding to other proteins or to serum can be assessed in a similar fashion.
as §1

alkaline phosphatase [3] = test: Bioactivation of prodrug by alkaline phosphatase in 4.5% HSA, 1/T1 monitored over time; type: biochemical; conditions: for 1/T1: 4.5% HSA, three units alkaline phosphatase, 20 MHz
Protocol: A solution of prodrug 1 (0.3 mM) was prepared in PBS buffer (pH 7) containing 4.5% HSA. […] Three units of alkaline phosphatase (1 unit converts […] of p-nitrophenylphosphate to p-nitrophenol per minute in phosphate buffered saline at 0.1 mM substrate) were added to the 4.5% HSA solution of compound 1 and the 1/T1 was monitored over time.

alkaline phosphatase [4] = test: T1-weighted MRI scan at 1.0 Tesla of 4.5% HSA solutions with or without alkaline phosphatase; type: biochemical
Protocol: Solutions of 4.5% HSA containing compounds 1 and 8 (0.1–0.2 mM) were prepared. After 15 minutes, an initial T1-weighted MRI scan (FISP-3D, TR=60, TE=5, alpha=60) at 1.0 Tesla of the 4.5% HSA solutions was obtained. […] Three units of alkaline phosphatase were added to half of the HSA solutions containing 1 and additional T1-weighted MRI scans were obtained. After 130 minutes, the solutions that contained 1 and alkaline phosphatase obtained 96% of the signal intensity that for the solutions that contain 8 at equivalent concentrations. […] A 20% increase in signal intensity was observed after addition of alkaline phosphatase to solutions containing 1.

HSA [5] = target: T2, HSA (Homo sapiens, UniProt P02768); conditions: cited from earlier work
T2 sequence (P02768 25-609): as above

HSA [6] = target: T2, HSA; conditions: cited from earlier work; remark: listed apart in the source
[7] = system: alpha 1-acid glycoprotein (AAG); conditions: binding to AAG; cited from earlier work
[8] = cited from earlier work
HSA [9] = target: T2, HSA; conditions: cited from earlier work; remark: listed apart in the source

## O=C(O)CN(CCN(CC(=O)O)CC(COc1ccc(-c2ccc(OP(=O)(O)O)cc2)cc1)N(CC(=O)O)CC(=O)O)CC(=O)O (centres unmarked) (Gd complex, metal not drawn) [Compound 1]
[1]
  Relaxivity in 4.5% HSA: 15.9 ± 0.2 mM⁻¹ s⁻¹
[2]
  Percent Binding in 4.5% HSA: 47 ± 1%
Alkaline phosphatase [3]; 0.3 mM in PBS (pH 7) with 4.5% HSA, before addition of alkaline phosphatase
  change in 20 MHz proton relaxation rate 1/T1 with time: No change
Alkaline phosphatase [3]; 0.3 mM prodrug in PBS (pH 7), time 0 min
  1/T1: 4.440 s⁻¹
Alkaline phosphatase [3]; 0.3 mM, time 1 min
  1/T1: 4.348 s⁻¹
Alkaline phosphatase [3]; 0.3 mM, time 2 min
  1/T1: 4.651 s⁻¹
Alkaline phosphatase [3]; 0.3 mM, time 4 min
  1/T1: 4.878 s⁻¹
Alkaline phosphatase [3]; 0.3 mM, time 6 min
  1/T1: 5.025 s⁻¹
Alkaline phosphatase [3]; 0.3 mM, time 14 min
  1/T1: 5.376 s⁻¹
Alkaline phosphatase [3]; 0.3 mM, time 48 min
  1/T1: 6.250 s⁻¹
Alkaline phosphatase [3]; 0.3 mM, time 90 min
  1/T1: 6.849 s⁻¹
Alkaline phosphatase [3]; 0.3 mM, time 110 min
  1/T1: 7.042 s⁻¹
Alkaline phosphatase [3]; 0.3 mM, time 137 min
  1/T1: 7.299 s⁻¹
Alkaline phosphatase [3]; corresponding to the change in 1/T1 upon complete activation
  approximate expected increase in signal intensity: ~24%
Alkaline phosphatase [3]; upon completion of enzymatic activation of 1 to 8
  change in 1/T1 from time zero: 2.86 s⁻¹
Alkaline phosphatase [4]; 4.5% HSA, no alkaline phosphatase, during the MRI scans
  MRI image without alkaline phosphatase: remained as constant dark images
Alkaline phosphatase [4]; after addition of alkaline phosphatase
  increase in signal intensity: 20%
Alkaline phosphatase [4]; with three units alkaline phosphatase, after 130 minutes, equivalent concentrations
  signal intensity relative to solutions containing 8: 96%

## O=C(O)CN(CCN(CC(=O)O)CC(COc1ccc(-c2ccc(O)cc2)cc1)N(CC(=O)O)CC(=O)O)CC(=O)O (centres unmarked) [Compound 8]
[1]; bound to HSA, 0.1 mM
  relaxivity compared with prodrug: higher relaxivity
[1]
  Relaxivity in 4.5% HSA: 26.4 ± 0.4 mM⁻¹ s⁻¹
[2]; concentration of 0.1 mM
  HSA binding affinity compared with prodrug: greater affinity than prodrug 1
[2]
  Percent Binding in 4.5% HSA: 63 ± 2%
Alkaline phosphatase [4]; 0.1–0.2 mM in 4.5% HSA, 1.0 Tesla, equivalent concentrations, no enzyme
  brightness of T1-weighted MRI scan: brighter than the solutions containing 1

## CCn1cc(C(=O)O)c(=O)c2cc(F)c(N3CCNC(C)C3)c(F)c21 (centres unmarked) [NY-198]
HSA [5]
  fraction bound to HSA (fb): 0.28

## C[C@H](CCC(=O)O)[C@H]1CC[C@H]2[C@@H]3[C@H](O)C[C@@H]4C[C@H](O)CC[C@]4(C)[C@H]3CC[C@]12C [chenodeoxycholic acid]
HSA [6]
  binding constant: 5.5×10^4

## CN(C)CCCN1c2ccccc2Sc2ccc(Cl)cc21 [chlorpromazine]
[7]
  Ka: 35.4×10^5

## CCn1cc(C(=O)O)c(=O)c2cc(F)c(N3CCNCC3)nc21 [enoxacin]
HSA [5]
  fraction bound to HSA (fb): 0.35

## CC1(C)C(/C=C/C=C/C=C/C=C2\N(CCCCS(=O)(=O)O)c3ccc4ccccc4c3C2(C)C)=[N+](CCCCS(=O)(=O)[O-])c2ccc3ccccc3c21 [indocyanine green]
[8]; before binding to proteins
  maximal absorbance: 770–780 nm
[8]; upon binding to proteins in plasma or blood
  maximal absorbance: 790–805 nm

## O=C(CCCCC(=O)Nc1c(I)cc(I)c(C(=O)O)c1I)Nc1c(I)cc(I)c(C(=O)O)c1I [iodipamide]
HSA [9]
  binding to HSA: > 98%

## COn1cc(C(=O)O)c(=O)c2cc3c(cc21)OCO3 [miloxacin]
HSA [5]
  fraction bound to HSA (fb): 0.86

## CCn1cc(C(=O)O)c(=O)c2ccc(C)nc21 [nalidixic acid]
HSA [5]
  fraction bound to HSA (fb): 0.71
